One test deals with SW48 cells. Nature of the test: Proliferation assay SW48 (CellTiterGlo). The class given is cell-based. The settings on record: Homo sapiens, SW48, 96 h, SW48 colon carcinoma cells, 96 hours, CellTiterGlo; geometric mean of at least 2; read-out: Proliferation Assay SW48 GI50. In short, it runs like this:
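SW48 cells, 2,000/well, treated after overnight seeding with eight 3-fold compound dilutions (0.1% DMSO) for 96 hours at 37° C. Viability read as ATP by CellTiterGlo luminescence, normalised to a day-0 plate and vehicle to give % growth; GI50 is geometric mean of ≥2 independent replicates.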

In test [1] the target is T1, WRN helicase (aa N517-P1238) (Homo sapiens, UniProt Q14191).
T1 construct: The core helicase motif of the WRN protein (aa N517-P1238) was produced for this assay; His (N); ZZ (N); 3C protease cleavage site (N); made in house; host or cells: Sf21 insect cells (baculovirus; virus and BIICs made in SF9)
T1 sequence (Q14191 517-1238): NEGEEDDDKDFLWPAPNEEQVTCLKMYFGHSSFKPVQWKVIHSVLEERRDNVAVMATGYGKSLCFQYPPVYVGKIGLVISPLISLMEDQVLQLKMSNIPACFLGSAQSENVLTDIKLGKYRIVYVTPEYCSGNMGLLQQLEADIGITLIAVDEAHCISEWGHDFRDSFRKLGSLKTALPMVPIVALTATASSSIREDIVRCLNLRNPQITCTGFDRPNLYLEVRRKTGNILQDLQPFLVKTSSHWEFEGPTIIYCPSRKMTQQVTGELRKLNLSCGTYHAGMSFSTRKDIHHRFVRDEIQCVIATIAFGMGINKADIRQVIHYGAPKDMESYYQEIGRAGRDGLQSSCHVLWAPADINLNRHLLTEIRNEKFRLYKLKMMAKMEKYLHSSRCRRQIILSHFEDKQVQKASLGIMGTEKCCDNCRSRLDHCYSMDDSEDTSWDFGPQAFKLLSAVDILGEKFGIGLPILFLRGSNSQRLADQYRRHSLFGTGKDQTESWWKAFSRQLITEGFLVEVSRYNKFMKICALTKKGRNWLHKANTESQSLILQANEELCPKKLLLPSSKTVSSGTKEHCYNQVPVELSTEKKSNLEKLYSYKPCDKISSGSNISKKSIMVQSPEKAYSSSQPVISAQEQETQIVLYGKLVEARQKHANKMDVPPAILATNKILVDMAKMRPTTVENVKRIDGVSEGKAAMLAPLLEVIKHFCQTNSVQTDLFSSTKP
Nature of the test: WRN ATPase assay (DNA dependent ATP hydrolysis, ADP-Glo). The class given is biochemical. The note with it: 3 hours pre-incubation, 300 micromolar ATP, FLAP26 DNA; geometric mean of at least 2. The essentials:
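DNA-dependent ATP hydrolysis detected as ADP by ADP-Glo luminescence, using 300 μM ATP, 0.2 nM FLAP26 substrate and 10 nM WRN aa N517-P1238 (Tris pH 7.5 buffer, 2 mM MgCl2, 50 mM NaCl). IC50s fitted from normalized duplicate half-log dilutions; reported as geometric means of at least 2 replicates.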
(In general: In ADP-Glo the light output rises with the ADP produced.)

In the next test the test system is DLD1-WRN-KO cells. Nature of the test: Proliferation assay DLD1-WRN-KO (CellTiterGlo, off-target effects). The class given is cell-based. The settings on record: 96 hours, geometric mean of at least 2. The essentials: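 DLD1 cells with CRISPR knockout of WRN were exposed overnight-seeded to eight 3-fold compound dilutions (0.1% DMSO) for 96 h at 37 °C. Viability was read as ATP by CellTiterGlo luminescence against a day-0 plate, giving GI50 and residual viability at top concentration.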
In general terms: ATP-based viability assays read luminescence as a measure of living cells.

Consider `Cc1c(N2CCN(C(=O)c3ccc(F)c(F)c3O)CC2)c(=O)n2nc(N3CCOCC3)nc2n1CC(=O)Nc1ccc(C(F)(F)F)cc1` [Example 150, 2-(6-(4-(3,4-difluoro-2-hydroxybenzoyl)piperazin-1-yl)-5-methyl-2-morpholino-7-oxo-[1,2,4]triazolo[1,5-a]pyrimidin-4(7H)-yl)-N-(4-(trifluoromethyl)phenyl)acetamide], for which the GI50 was 2 µM in the test with SW48 cells and more than 10 µM in the test with DLD1-WRN-KO cells. Moreover, the half-inhibitory concentration (IC50) (as a rule, the concentration that inhibits the measured activity by half) in test [1] amounted to 0.09 µM.
`Cc1c(N2CCN(C(=O)c3cnccc3O)CC2)c(=O)n2nc(N3CCOCC3)nc2n1CC(=O)Nc1ccc(C(F)(F)F)cc1` [Example 152, 2-(5-methyl-2-morpholino-7-oxo-6-(4-(4-oxo-1,4-dihydropyridine-3-carbonyl)piperazin-1-yl)-[1,2,4]triazolo[1,5-a]pyrimidin-4(7H)-yl)-N-(4-(trifluoromethyl)phenyl)acetamide]: the GI50 in the test with SW48 cells and in the test with DLD1-WRN-KO cells was more than 10 µM each time. In test [1], this molecule yielded an IC50 of 0.5 µM.
Consider `COc1cccc(C(=O)N2CCN(c3c(C)n(CC(=O)Nc4ccc(C(F)(F)F)cc4)c4nc(C5=CCOCC5)nn4c3=O)CC2)c1N` [Example 155, 2-(6-(4-(2-amino-3-methoxybenzoyl)piperazin-1-yl)-2-(3,6-dihydro-2H-pyran-4-yl)-5-methyl-7-oxo-[1,2,4]triazolo[1,5-a]pyrimidin-4(7H)-yl)-N-(4-(trifluoromethyl)phenyl)acetamide], for which the GI50 with SW48 cells was 2 µM; with DLD1-WRN-KO cells, more than 10 µM. For the same molecule, in test [1], the IC50 was 0.1 µM.
For `COC(=O)N1CC=C(c2nc3n(CC(=O)Nc4ccc(S(F)(F)(F)(F)F)cc4)c(C)c(N4CCN(C(C)=O)CC4)c(=O)n3n2)CC1` [Example 156, methyl 4-(6-(4-acetylpiperazin-1-yl)-5-methyl-7-oxo-4-(2-oxo-2-((4-(pentafluoro-16-sulfaneyl)phenyl)amino)ethyl)-4,7-dihydro-[1,2,4]triazolo[1,5-a]pyrimidin-2-yl)-3,6-dihydropyridine-1(2H)-carboxylate], the results for the GI50 with SW48 cells and in the test on DLD1-WRN-KO cells were 3 µM and more than 10 µM, respectively. Besides, the IC50 in test [1] worked out at 0.2 µM.
`Cc1c(N2CCN(C(=O)c3cc(F)ccc3N)CC2)c(=O)n2nc(C3=CCOCC3)nc2n1CC(=O)Nc1ccc(C(F)(F)F)cc1` [Example 157, 2-(6-(4-(2-amino-5-fluorobenzoyl)piperazin-1-yl)-2-(3,6-dihydro-2H-pyran-4-yl)-5-methyl-7-oxo-[1,2,4]triazolo[1,5-a]pyrimidin-4(7H)-yl)-N-(4-(trifluoromethyl)phenyl)acetamide]: the results for the GI50 in the test with SW48 cells and in the test on DLD1-WRN-KO cells were 3 µM and more than 10 µM, respectively. Moreover, the half-inhibitory concentration (IC50) in test [1] turned out to be 0.2 µM.
Turning to `CC(=O)N1CCN(c2c(C)n(CC(=O)Nc3ccc(Cl)cc3)c3nc(N4CCN(C(=O)OC(C)(C)C)CC4)nn3c2=O)CC1` [Example 158, tert-butyl 4-(6-(4-acetylpiperazin-1-yl)-4-(2-((4-chlorophenyl)amino)-2-oxoethyl)-5-methyl-7-oxo-4,7-dihydro-[1,2,4]triazolo[1,5-a]pyrimidin-2-yl)piperazine-1-carboxylate], the GI50 stood at 3 µM with SW48 cells and 1 µM in the test on DLD1-WRN-KO cells. Besides, the IC50 in test [1] is 0.3 µM.
In the case of `Cc1nnc(C(=O)N2CCN(c3c(C)n(CC(=O)Nc4ccc(C(F)(F)F)cc4)c4nc(C5=CCOCC5)nn4c3=O)CC2)[nH]1` [Example 159, 2-(2-(3,6-dihydro-2H-pyran-4-yl)-5-methyl-6-(4-(5-methyl-4H-1,2,4-triazole-3-carbonyl)piperazin-1-yl)-7-oxo-[1,2,4]triazolo[1,5-a]pyrimidin-4(7H)-yl)-N-(4-(trifluoromethyl)phenyl)acetamide], the GI50 with SW48 cells and in the test on DLD1-WRN-KO cells was more than 10 µM in each case. In test [1], this molecule yielded a concentration for half-maximal inhibition (IC50) of 0.6 µM.
In the case of `Cc1c(N2CCN(C(=O)c3ncccc3N)CC2)c(=O)n2nc(N3CCOCC3)nc2n1CC(=O)Nc1ccc(C(F)(F)F)cc1` [Example 160, 2-(6-(4-(3-aminopicolinoyl)piperazin-1-yl)-5-methyl-2-morpholino-7-oxo-[1,2,4]triazolo[1,5-a]pyrimidin-4(7H)-yl)-N-(4-(trifluoromethyl)phenyl)acetamide], the GI50 with SW48 cells is 6 µM; in the test with DLD1-WRN-KO cells, more than 10 µM. In addition, half-maximal inhibition in test [1] (IC50) was put at 0.6 µM.
Turning to `CC(=O)N1C2CCC1CN(c1c(C)n(CC(=O)Nc3ccc(C(F)(F)F)cc3)c3nc(C4=CCOCC4)nn3c1=O)C2` [Example 161, 2-(6-(8-acetyl-3,8-diazabicyclo[3.2.1]octan-3-yl)-2-(3,6-dihydro-2H-pyran-4-yl)-5-methyl-7-oxo-[1,2,4]triazolo[1,5-a]pyrimidin-4(7H)-yl)-N-(4-(trifluoromethyl)phenyl)acetamide], the values for the GI50 in the test with SW48 cells and with DLD1-WRN-KO cells were 5 µM and more than 10 µM, respectively. Further, inhibition in test [1] was half-maximal at 0.7 µM (IC50).
For the molecule `CC(=O)N1CCN(c2c(C(C)C)n(CC(=O)Nc3ccc(C(F)(F)F)cc3)c3nc(C4=CCOCC4)nn3c2=O)CC1` [Example 162, 2-(6-(4-acetylpiperazin-1-yl)-2-(3,6-dihydro-2H-pyran-4-yl)-5-isopropyl-7-oxo-[1,2,4]triazolo[1,5-a]pyrimidin-4(7H)-yl)-N-(4-(trifluoromethyl)phenyl)acetamide], the results for the GI50 with SW48 cells and in the test on DLD1-WRN-KO cells were 3 µM and more than 10 µM, respectively. In test [1], this molecule had a concentration for half-maximal inhibition (IC50) of 0.9 µM.
Turning to `CC(=O)N1CCN(c2c(C)n(CC(=O)Nc3ccc(C(F)(F)F)cc3)c3nc(C4=CCOCC4)nn3c2=O)CC1C` (stereo not drawn) [Example 163, 2-(6-(4-acetyl-3-methylpiperazin-1-yl)-2-(3,6-dihydro-2H-pyran-4-yl)-5-methyl-7-oxo-[1,2,4]triazolo[1,5-a]pyrimidin-4(7H)-yl)-N-(4-(trifluoromethyl)phenyl)acetamide], the values for the GI50 in the test with SW48 cells and with DLD1-WRN-KO cells were 7 µM and more than 10 µM, respectively. The molecule further gave an IC50 in test [1] of 1 µM.
For the molecule `Cc1c(N2CCN(C(=O)c3cc(C#N)n[nH]3)CC2)c(=O)n2nc(C3=CCOCC3)nc2n1CC(=O)Nc1ccc(C(F)(F)F)cc1` [Example 164, 2-(6-(4-(3-cyano-1H-pyrazole-5-carbonyl)piperazin-1-yl)-2-(3,6-dihydro-2H-pyran-4-yl)-5-methyl-7-oxo-[1,2,4]triazolo[1,5-a]pyrimidin-4(7H)-yl)-N-(4-(trifluoromethyl)phenyl)acetamide], the GI50 with SW48 cells and with DLD1-WRN-KO cells was more than 10 µM in each case. This molecule also yielded an IC50 in test [1] of 0.05 µM.
As for `Cc1c(N2CCN(C(=O)c3c[nH]c(=O)cn3)CC2)c(=O)n2nc(N3CCOCC3)nc2n1CC(=O)Nc1ccc(C(F)(F)F)cc1` [Example 166, 2-(5-methyl-2-morpholino-7-oxo-6-(4-(5-oxo-4,5-dihydropyrazine-2-carbonyl)piperazin-1-yl)-[1,2,4]triazolo[1,5-a]pyrimidin-4(7H)-yl)-N-(4-(trifluoromethyl)phenyl)acetamide], the GI50 in the test with SW48 cells and in the test on DLD1-WRN-KO cells was more than 10 µM in each case. For the same molecule, the 50% inhibitory concentration (IC50) in test [1] was 0.1 µM.

Values taken from patent US20260250289A1, “BICYCLIC HETEROCYCLES AND THEIR USE AS WRN INHIBITORS” (Novartis AG, priority 2022, published 2026).
